Activity calls are given as the source filed them. The rule behind the calls is not given here.
How the values were obtained:
[1] = Apparent permeability across basolateral to apical side in dog MDCK-MDR1 cells incubated for 60 mins by LC-MS/MS analysis; type: ADME, cell-based, Canis lupus familiaris
[2] = Apparent permeability across apical to basolateral side in dog MDCK-MDR1 cells incubated for 60 mins by LC-MS/MS analysis; type: ADME, cell-based, Canis lupus familiaris
[3] = system: Trypanosoma brucei brucei; test: Antitrypanosomal activity against bloodstream form of Trypanosoma brucei brucei 221 assessed as parasite growth inhibition at 100 ug/ml incubated for 48 hrs by resazurin staining based assay relative to control; type: functional
[4] = Efflux ratio of apparent permeability from basolateral to apical side over apical to basolateral side in MDCK-MDR1 cells; type: ADME, cell-based, Canis lupus familiaris; conditions: dog
[5] = system: Trypanosoma brucei brucei; test: Potency index, ratio of nifurtimox IC50 to compound IC50 for antitrypanosomal activity against blood stream form of Trypanosoma brucei brucei 221; type: functional
[6] = system: Trypanosoma brucei brucei; test: Antitrypanosomal activity against bloodstream form of Trypanosoma brucei brucei 221 assessed as parasite growth inhibition at 1 ug/ml incubated for 48 hrs by resazurin staining based assay relative to control; type: functional
[7] = system: Poly(dA-dT)oligonucleotide; test: Binding affinity to poly (dA-dT)2 (unknown origin) assessed as thermal stability by measuring melting temperature by spectrophotometric method; type: nucleic-acid assay
[8] = system: Poly(dA-dU)oligonucleotide; test: Binding affinity to poly A-poly U (unknown origin) assessed as binding constant by fluorescence spectra analysis; type: nucleic-acid assay
Calf thymus DNA [9] = test: Binding affinity to calf thymus DNA assessed as binding constant by fluorescence spectra analysis; type: nucleic-acid assay; conditions: Bos taurus
Calf thymus DNA [10] = test: Binding affinity to calf thymus DNA assessed as thermal stability by measuring melting temperature by spectrophotometric method; type: nucleic-acid assay; conditions: Bos taurus
[11] = Selectivity index, ratio of IC50 for rat L6 cells to IC50 for Trypanosoma brucei brucei 221; type: toxicity; conditions: read-out: Ratio IC50
[12] = system: Trypanosoma brucei brucei; test: Antitrypanosomal activity against bloodstream form of Trypanosoma brucei brucei 221 assessed as parasite growth inhibition incubated for 48 hrs by resazurin staining based assay; type: functional, organism-based; conditions: for IC50: Trypanosoma brucei, 221, 48 h; for IC90: Trypanosoma brucei, 221, time 48 hrs
L6 = test: Cytotoxicity against rat L6 cells incubated for 6 days by resazurin dye based assay; type: cell-based; conditions: L6, 144 h
dsDNA = test: Binding affinity to minor groove of ds-DNA (unknown origin) assessed as positive ICD band by CD spectroscopy; type: nucleic-acid assay
RNA = test: Binding affinity to major groove of ds-RNA (unknown origin) assessed as positive ICD band by CD spectroscopy; type: nucleic-acid assay
[13] = system: Poly(dA-dT)oligonucleotide; test: Binding affinity to p(dAdT)2 (unknown origin) assessed as binding constant by fluorescence spectra analysis; type: nucleic-acid assay
[14] = system: Poly(dA-dU)oligonucleotide; test: Binding affinity to poly A-poly U (unknown origin) assessed as thermal stability by measuring melting temperature by spectrophotometric method; type: nucleic-acid assay
[15] = system: Trypanosoma brucei brucei; test: Antitrypanosomal activity against bloodstream form of Trypanosoma brucei brucei assessed as parasite growth inhibition incubated for 3 days by alamar blue staining based assay; conditions: 72 h
[16] = system: Trypanosoma brucei brucei; test: Antitrypanosomal activity against bloodstream form of Trypanosoma brucei brucei 221 assessed as parasite growth inhibition at 10 ug/ml incubated for 48 hrs by resazurin staining based assay relative to control; type: functional
[17] = system: Poly(dG-dC)oligonucleotide; test: Binding affinity to p(dGdC)2 (unknown origin) assessed as binding constant by fluorescence spectra analysis; type: nucleic-acid assay

Structure (SMILES)	Papp B→A at 1 h [1]	Papp A→B at 1 h [2]	efflux ratio [4]	inhibition at 100 µg/mL [3]	also measured
Cl.Cl.O=C(COc1ccc(-c2nc3cc(C4=NCCN4)ccc3[nH]2)cc1)N1CCOCC1	1.53 ×10⁻⁶ cm/s	1.06 ×10⁻⁶ cm/s	1.44	100%	–
COc1cc(-c2nc3cc(C4=NCCN4)ccc3[nH]2)ccc1OCC(=O)N1CCOCC1.Cl.Cl	1.38 ×10⁻⁶ cm/s	1.76 ×10⁻⁶ cm/s	0.78	100%	–
CCN(CC)CCOc1ccc(-c2nc3cc(C4=NCCN4)ccc3[nH]2)cc1OC.Cl.Cl	0.5 ×10⁻⁶ cm/s	< 0.1 ×10⁻⁶ cm/s	> 5	100%	Ratio IC50 [5]: >2; inhibition at 1 µg/mL [6]: > 90%; ΔTm [7]: 19.3 °C; log Ks [8]: 5.4; log Ks (Calf thymus DNA [9]): 6.8; ΔTm (Calf thymus DNA [10]): 7.2 °C; selectivity ratio [11]: > 350; IC50 [12]: 0.71 µM; IC90 [12]: 1.47 µM; IC50 (L6): > 250 µM; Activity (dsDNA): Active; Activity (RNA): Active; log Ks [13]: 7.1; ΔTm [14]: 2.3 °C
CC1CS(=O)(=O)CCN1/N=C/c1ccc([N+](=O)[O-])o1 (stereo not given) [NIFURTIMOX]	–	–	–	–	IC50 [15]: 2 µM
Cl.Cl.O=C(COc1ccc(-c2nc3cc(C4=NCCN4)ccc3[nH]2)cc1F)N1CCOCC1	0.99 ×10⁻⁶ cm/s	0.86 ×10⁻⁶ cm/s	1.16	100%	–
Cl.Cl.Fc1cc(-c2nc3cc(C4=NCCN4)ccc3[nH]2)ccc1OCc1cn(CCN2CCOCC2)nn1	0.8 ×10⁻⁶ cm/s	0.49 ×10⁻⁶ cm/s	1.64	100%	IC50 [12]: > 4 µM
Cl.c1cc(-c2nc3cc(C4=NCCN4)ccc3[nH]2)ccc1OCCN1CCOCC1	0.69 ×10⁻⁶ cm/s	0.49 ×10⁻⁶ cm/s	1.4	100%	–
Cl.Cl.Fc1cc(-c2nc3cc(C4=NCCN4)ccc3[nH]2)ccc1OCCN1CCOCC1	0.84 ×10⁻⁶ cm/s	0.49 ×10⁻⁶ cm/s	1.7	100%	–
CCN(CC)CCOc1ccc(-c2nc3cc(C4=NCCN4)ccc3[nH]2)cc1F.Cl.Cl	0.49 ×10⁻⁶ cm/s	0.17 ×10⁻⁶ cm/s	2.92	100%	inhibition at 1 µg/mL [6]: > 90%; log Ks [17]: 4.5; ΔTm [7]: 14.7 °C; log Ks [8]: 4.9; log Ks (Calf thymus DNA [9]): 6; ΔTm (Calf thymus DNA [10]): 4.5 °C; selectivity ratio [11]: > 68; IC50 [12]: 3.67 µM; IC50 (L6): > 250 µM; log Ks [13]: 6.4; ΔTm [14]: 2.4 °C
COc1cc(-c2nc3cc(C4=NCCN4)ccc3[nH]2)ccc1OCc1cn(CCN2CCOCC2)nn1.Cl.Cl	0.89 ×10⁻⁶ cm/s	0.48 ×10⁻⁶ cm/s	1.86	100%	–
COc1cc(-c2nc3cc(C4=NCCN4)ccc3[nH]2)ccc1OCCN1CCOCC1.Cl.Cl	0.67 ×10⁻⁶ cm/s	0.64 ×10⁻⁶ cm/s	1.04	100%	–

More lines, main results first:

Papp B→A at 1 h [1]	Papp A→B at 1 h [2]	efflux ratio [4]	Structure (SMILES)	inhibition at 100 µg/mL [3]	also measured
< 0.1 ×10⁻⁶ cm/s	< 0.1 ×10⁻⁶ cm/s	–	COc1cc(-c2nc3cc(C4=NCCN4)ccc3[nH]2)ccc1OCc1cn(Cc2ccccc2)nn1.Cl	100%	–
0.52 ×10⁻⁶ cm/s	0.12 ×10⁻⁶ cm/s	4.22	COc1cc(-c2nc3cc(C4=NCCN4)ccc3[nH]2)ccc1OCc1ccccn1.Cl	100%	–
0.51 ×10⁻⁶ cm/s	0.07 ×10⁻⁶ cm/s	7.82	Cl.c1ccc(COc2ccc(-c3nc4cc(C5=NCCN5)ccc4[nH]3)cc2)nc1	100%	–
–	< 0.1 ×10⁻⁶ cm/s	–	COc1cc(-c2nc3cc(C4=NCCN4)ccc3[nH]2)ccc1OCC(=O)c1ccccc1.Cl	100%	–
0.2 ×10⁻⁶ cm/s	< 0.1 ×10⁻⁶ cm/s	> 2.4	Cl.Fc1cc(-c2nc3cc(C4=NCCN4)ccc3[nH]2)ccc1OCc1ccccn1	100%	inhibition at 10 µg/mL [16]: 40%
0.11 ×10⁻⁶ cm/s	< 0.1 ×10⁻⁶ cm/s	–	Cl.O=C(COc1ccc(-c2nc3cc(C4=NCCN4)ccc3[nH]2)cc1)c1ccccc1	100%	–
0.63 ×10⁻⁶ cm/s	0.27 ×10⁻⁶ cm/s	2.38	CCN(CC)CCOc1ccc(-c2nc3cc(C4=NCCN4)ccc3[nH]2)cc1.Cl.Cl	100%	Ratio IC50 [5]: >2; inhibition at 1 µg/mL [6]: > 90%; log Ks [17]: 5.3; ΔTm [7]: 17.9 °C; log Ks [8]: 5.1; log Ks (Calf thymus DNA [9]): 5.9; ΔTm (Calf thymus DNA [10]): 6.4 °C; selectivity ratio [11]: > 530; IC50 [12]: 0.47 µM; IC90 [12]: 1.82 µM; IC50 (L6): > 250 µM; Activity (dsDNA): Active; Activity (RNA): Active; log Ks [13]: 5.2; ΔTm [14]: 4.5 °C
1.18 ×10⁻⁶ cm/s	1.09 ×10⁻⁶ cm/s	1.09	Cl.Cl.c1cc(-c2nc3cc(C4=NCCN4)ccc3[nH]2)ccc1OCc1cn(CCN2CCOCC2)nn1	100%	inhibition at 1 µg/mL [6]: > 90%; IC50 [12]: > 4 µM
0.09 ×10⁻⁶ cm/s	< 0.1 ×10⁻⁶ cm/s	–	Cl.Fc1cc(-c2nc3cc(C4=NCCN4)ccc3[nH]2)ccc1OCc1cn(Cc2ccccc2)nn1	100%	–
0.84 ×10⁻⁶ cm/s	0.46 ×10⁻⁶ cm/s	1.81	Cl.c1cc(-c2nc3cc(C4=NCCN4)ccc3[nH]2)ccc1OCc1c[nH]nn1	100%	inhibition at 1 µg/mL [6]: > 90%; IC50 [12]: > 4 µM
< 0.1 ×10⁻⁶ cm/s	< 0.1 ×10⁻⁶ cm/s	–	Cl.O=C(COc1ccc(-c2nc3cc(C4=NCCN4)ccc3[nH]2)cc1F)c1ccccc1	100%	–

From ChEMBL document CHEMBL4706577, “Design, synthesis, antitrypanosomal activity, DNA/RNA binding and in vitro ADME profiling of novel imidazoline-substituted 2-arylbenzimidazoles” (Eur J Med Chem, 2020)
